Test results: paper doi:10.1101/2020.08.04.236091v1 (biorxiv, 2020)

Molecular target: T1, MdomOR30a (co-expressed with MdomOrco) (Musca domestica, UniProt A0A1I8MP03)
T1 sequence (A0A1I8MP03 1-373): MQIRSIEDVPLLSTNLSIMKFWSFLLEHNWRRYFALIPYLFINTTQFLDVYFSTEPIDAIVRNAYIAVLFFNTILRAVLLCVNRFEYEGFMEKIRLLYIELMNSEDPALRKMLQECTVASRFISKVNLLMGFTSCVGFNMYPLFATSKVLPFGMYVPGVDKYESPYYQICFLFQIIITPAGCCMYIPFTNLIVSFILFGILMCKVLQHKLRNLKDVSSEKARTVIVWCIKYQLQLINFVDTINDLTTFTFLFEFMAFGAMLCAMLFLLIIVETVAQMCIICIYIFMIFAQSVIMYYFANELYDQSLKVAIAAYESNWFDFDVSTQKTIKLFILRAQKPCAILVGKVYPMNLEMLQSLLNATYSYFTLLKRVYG
T1 sequence (I0E1X6 1-478 partner): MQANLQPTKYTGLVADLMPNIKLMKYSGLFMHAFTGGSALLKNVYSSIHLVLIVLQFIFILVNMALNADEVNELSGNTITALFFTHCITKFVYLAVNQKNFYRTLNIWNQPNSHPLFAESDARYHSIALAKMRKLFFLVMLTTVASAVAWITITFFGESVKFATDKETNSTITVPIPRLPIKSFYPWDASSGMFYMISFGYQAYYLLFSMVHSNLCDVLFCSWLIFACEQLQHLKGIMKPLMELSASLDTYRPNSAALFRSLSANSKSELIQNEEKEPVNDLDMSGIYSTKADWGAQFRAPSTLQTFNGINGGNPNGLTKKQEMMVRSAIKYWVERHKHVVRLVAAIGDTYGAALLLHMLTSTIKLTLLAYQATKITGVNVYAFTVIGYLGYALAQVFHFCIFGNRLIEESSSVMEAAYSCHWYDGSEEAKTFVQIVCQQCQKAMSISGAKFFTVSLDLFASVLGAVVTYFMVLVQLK
Experiment: two-electrode voltage clamp, Xenopus oocytes, odorant-induced currents
Format: cell-based

SMILES | EC50
Cc1c[nH]c2ccccc12 [3-methylindole] | 0.331 µM
c1ccc2[nH]ccc2c1 [indole] | 5.2 µM
Cc1[nH]c2ccccc2c1C [2,3-dimethylindole] | 7.04 µM
